Measured values reported in ChEMBL document CHEMBL1201862, “PubChem BioAssay data set” (2004).
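Dose response: 5 concentrations. Exposure: 48 h. Format: 96-well plates. Endpoint: linear interpolation; highest concentration if not reached. Here, GI50 denotes the concentration required for 50% inhibition of growth.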 The source made the active and inactive calls. Rule as the data show it: active = GI50 up to about 1.1 µM and inactive = higher.

How the values were obtained:
Experiment in all cases: growth of human tumour cells (NCI), 48 h
HT-29 = test system: HT-29
A549 = test system: A549
ACHN = test system: ACHN
A498 = test system: A498
Malme-3M = test system: Malme-3M
XF498 = test system: XF498
SW-620 = test system: SW-620
SK-OV-3 = test system: SK-OV-3
HOP-62 = test system: HOP-62
NCI-H226 = test system: NCI-H226
LXFL 529 = test system: LXFL 529
SNB-19 = test system: SNB-19
HL-60 = test system: HL-60
OVCAR-5 = test system: OVCAR-5
NCI-H23 = test system: NCI-H23
SR = test system: SR
DMS-273 = test system: DMS-273
MOLT-4 = test system: MOLT-4
HCC 2998 = test system: HCC 2998
SF-539 = test system: SF-539
IGROV-1 = test system: IGROV-1
SN12C = test system: SN12C
OVCAR-4 = test system: OVCAR-4
U-251 = test system: U-251
UACC-62 = test system: UACC-62
RPMI-8226 = test system: RPMI-8226
HOP-18 = test system: HOP-18
SF-295 = test system: SF-295
M19-MEL = test system: M19-MEL
KM-20L2 = test system: KM-20L2
SK-MEL-5 = test system: SK-MEL-5
SF-268 = test system: SF-268
M14 = test system: M14
NCI-H522 = test system: NCI-H522
RXF 393 = test system: RXF 393
UACC-257 = test system: UACC-257
OVCAR-3 = test system: OVCAR-3
UO-31 = test system: UO-31
HCT-116 = test system: HCT-116
DMS-114 = test system: DMS-114
SNB-75 = test system: SNB-75
K562 = test system: K562
LOX IMVI = test system: LOX IMVI
NCI-H460 = test system: NCI-H460
SK-MEL-2 = test system: SK-MEL-2
DLD-1 = test system: DLD-1
OVCAR-8 = test system: OVCAR-8
SNB-78 = test system: SNB-78
RXF 631 = test system: RXF 631
CCRF-CEM = test system: CCRF-CEM
HCT-15 = test system: HCT-15
EKVX = test system: EKVX
CAKI-1 = test system: CAKI-1
TK-10 = test system: TK-10
HOP-92 = test system: HOP-92
KM12 = test system: KM12
COLO 205 = test system: COLO 205
SK-MEL-28 = test system: SK-MEL-28
786-0 = test system: 786-0

Measured: GI50

COc1ccc(/C(C=O)=C(\Cl)c2ccc(OC)c(OC)c2)cc1
inactive: HT-29 > 100 µM | A549 > 100 µM | ACHN > 100 µM | A498 18.4 µM | Malme-3M > 100 µM | XF498 15.4 µM | SW-620 > 100 µM | SK-OV-3 67.1 µM | HOP-62 36.8 µM | NCI-H226 > 100 µM | LXFL 529 > 100 µM | SNB-19 > 100 µM | HL-60 24 µM | OVCAR-5 > 100 µM | NCI-H23 > 100 µM | SR 3.89 µM | DMS-273 49.2 µM | MOLT-4 87.3 µM | HCC 2998 > 100 µM | SF-539 57.3 µM | IGROV-1 > 100 µM | SN12C > 100 µM | OVCAR-4 > 100 µM | U-251 32.1 µM | UACC-62 > 100 µM | RPMI-8226 > 100 µM | HOP-18 > 100 µM | SF-295 > 100 µM | M19-MEL > 100 µM | KM-20L2 > 100 µM | SK-MEL-5 > 100 µM | SF-268 46.1 µM | M14 > 100 µM | NCI-H522 5.83 µM | RXF 393 > 100 µM | UACC-257 > 100 µM | OVCAR-3 > 100 µM | UO-31 > 100 µM | HCT-116 > 100 µM | DMS-114 81.3 µM | SNB-75 22.6 µM | K562 62.8 µM | LOX IMVI > 100 µM | NCI-H460 > 100 µM | SK-MEL-2 > 100 µM | DLD-1 15.6 µM | OVCAR-8 75.5 µM | SNB-78 23 µM | RXF 631 > 100 µM | CCRF-CEM 52.4 µM | EKVX > 100 µM | CAKI-1 > 100 µM | TK-10 > 100 µM
> 100 µM: HCT-15

NNC(=O)/C(NC(=O)c1ccccc1)=C(\N)c1cccc([N+](=O)[O-])c1
> 100 µM: HCT-15
inactive: HT-29 > 100 µM | A549 > 100 µM | ACHN > 100 µM | A498 > 100 µM | HOP-92 > 100 µM | Malme-3M > 100 µM | XF498 > 100 µM | SW-620 > 100 µM | SK-OV-3 > 100 µM | HOP-62 > 100 µM | NCI-H226 > 100 µM | KM12 > 100 µM | LXFL 529 > 100 µM | SNB-19 > 100 µM | HL-60 > 100 µM | OVCAR-5 > 100 µM | NCI-H23 > 100 µM | SR > 100 µM | DMS-273 > 100 µM | MOLT-4 94.2 µM | HCC 2998 > 100 µM | SF-539 > 100 µM | IGROV-1 > 100 µM | COLO 205 > 100 µM | SN12C > 100 µM | OVCAR-4 > 100 µM | U-251 > 100 µM | UACC-62 > 100 µM | RPMI-8226 > 100 µM | HOP-18 > 100 µM | SF-295 > 100 µM | M19-MEL > 100 µM | SK-MEL-5 > 100 µM | SF-268 > 100 µM | M14 > 100 µM | NCI-H522 > 100 µM | SK-MEL-28 > 100 µM | RXF 393 > 100 µM | UACC-257 > 100 µM | OVCAR-3 > 100 µM | UO-31 > 100 µM | HCT-116 > 100 µM | DMS-114 > 100 µM | SNB-75 > 100 µM | K562 > 100 µM | LOX IMVI > 100 µM | NCI-H460 > 100 µM | 786-0 > 100 µM | SK-MEL-2 > 100 µM | DLD-1 > 100 µM | OVCAR-8 > 100 µM | SNB-78 > 100 µM | RXF 631 > 100 µM | CCRF-CEM > 100 µM | EKVX > 100 µM | CAKI-1 > 100 µM | TK-10 > 100 µM
